target: TNF-α; assay: Inhibition of TNFα in culture supernatant of LPS-stimulated peripheral human leukocytes, TNFα-specific enzyme immunoassay; assay type: cell-based; details: Periphere humane Leukozyten, LPS über 22 Std., Kulturüberstand
Text: […] humane Leukozyten werden mit LPS über 22 Std. inkubiert. Der Kulturüberstand wird mit einem TNFα spezifischen Enzym-Immuno-Assay untersucht. Durch Vergleich der für die Messproben erhaltenen TNFα-Konzentrationen mit den ungehemmten Proben wird die prozentuale Hemmung fiir die einzelne Probe berechnet. Aus der […]. Der IC50-Wert läßt sich wie folgt ermitteln: v = v0 /(1 + [I] / IC50 ) [formula] • v = […]0 = […] ohne Inhibitor • [I] = […] IC50-Werte, der in den Beispielen beschriebenen Substanzen gegen TNF-α finden sich in der folgenden Tabelle:

Compound	IC50 [µM]
CCOC(=O)c1c2ccc(CC(=O)O)ccc-2c(C(=O)OCC)c1N [Beispiel 1, 2-Amino-6-carboxylmethyl-azulen-1,3-dicarbonsäurediethylester]	0.16
CCOC(=O)c1c2ccc(CC(=O)O)ccc-2c(C(=O)O)c1N [Beispiel 2, 2-Amino-6-carboxylmethyl-azulen-1,3-dicarbonsäuremonoethylester]	10.5
CCOC(=O)c1c2ccc(CC(=O)NO)ccc-2c(C(=O)OCC)c1N [Beispiel 3, 2-Amino-6-hydroxycarbamoylmethyl-azulen-1,3-dicarbonsäurediethylester]	0.001
CCOC(=O)c1c2ccc(CC(=O)O)ccc-2c(C(=O)OCC)c1NC(C)=O [Beispiel 4, 2-Acetylamino-6-carboxymethyl-azulen-1,3-dicarbonsäurediethylester]	4.1
CCOC(=O)c1c2ccc(CC(=O)NO)ccc-2c(C(=O)OCC)c1NC(C)=O [Beispiel 5, 2-Acetylamino-6-hydroxycarbamoylmethyl-azulen-1,3-dicarbonsäurediethylester]	0.02
CCOC(=O)c1c2ccc(C(C(=O)NC(N)=O)C(=O)OCC)ccc-2c(C(=O)OCC)c1N (centres unmarked) [Beispiel 6, 2-Amino-6-(1-ethoxycarbonyl-2-oxo-2-ureido-ethyl)-azulen-1,3-dicarbonsäurediethylester]	15
CC(C)(C)OC(=O)c1c2cccccc-2c(C(=O)OC(C)(C)C)c1N [Beispiel 7, 2-Amino-azulen-1,3-dicarbonsäure-di-tert-butylester]	2.8
CCOC(=O)c1c2cccccc-2c(C(=O)OC(C)(C)C)c1N [Beispiel 8, 2-Amino-azulen-1,3-dicarbonsäure-tert-butyl-ethylester]	8
CC(C)(C)OC(=O)c1c2ccc(Br)ccc-2c(C(=O)OC(C)(C)C)c1N [Beispiel 9, 2-Amino-6-bromo-azulen-1,3-dicarbonsäure-di-tert-butylester]	2.3
CC(=O)N(C(C)=O)c1c(C(=O)OC(C)(C)C)c2ccc(Br)ccc-2c1C(=O)OC(C)(C)C [Beispiel 10, 2-Diacetylamino-6-bromo-azulen-1,3-dicarbonsäure-di-tert-butylester]	0.5
CC(=O)N(C(C)=O)c1c(C(=O)OC(C)(C)C)c2ccc(C(C(=O)OC(C)(C)C)C(=O)OC(C)(C)C)ccc-2c1C(=O)OC(C)(C)C [Beispiel 11, 6-(Bis-tert-butoxycarbonyl-methyl)-2-diacetylamino-azulene-1,3-dicarbonsäure-di-tert-butylester]	4.2
